Measured values reported in patent US20210369803A1, “COMPOSITION CONTAINING SALVIA MILTIORRHIZA BUNGE EXTRACT AS ACTIVE INGREDIENT FOR TREATMENT OR PREVENTION OF BENIGN PROSTATIC HYPERPLASIA OR ALOPECIA” (CUROME BIOSCIENCES CO., LTD., priority 2019, published 2021).

Tests used:
[1] = system: 5α-reductase type 2 (5AR2); assay: Western blot of 5AR2 expression in DHT-treated LNCaP cells; assay type: cell-based, human; details: 5 μM, DHT-induced LNCaP cells
Procedure: (§1) Animal cells were cultured to investigate the effect of the Salvia miltiorrhiza Bunge extract of the present invention on benign prostatic hyperplasia or alopecia. Human prostate adenocarcinoma cell line LNCaP cells sensitive to androgens were used as animal cells, and purchased from the Korean Cell Line Bank (Seoul, Korea, KCLB #:21740). The cells were cultured in Roswell Park Memorial Institute (RPMI) medium supplemented with […] penicillin/streptomycin and 10% fetal bovine serum (FBS), and maintained in a CO2 incubator at 37° C.
(§2) Goat anti-rabbit immunoglobulin G (IgG, 7074) and anti-mouse IgG (7076) were purchased from Cell Signaling (Danvers, Mass.). […]
(§3) The LNCaP cells were seeded onto 6-well plates (1×10^6 cells/well) in 2 mL of RPMI medium supplemented with 10% FBS, 100 U/mL penicillin, and […] streptomycin. […] The lysed cells were centrifuged at 13,000 RPM for 20 minutes at 4° C., and the protein concentration was determined using BCA assay. […] The chemiluminescent intensities of protein signals were quantified using ImageJ 1.47 v software, and the results are shown in FIG. 2. The data obtained by SPSS version 11.5 for Windows (SPSS Inc., Chicago, Ill., USA) were expressed as the means±standard errors of the means (SEM). […]

[2] = system: androgen receptor (AR); assay: Western blot of AR expression in DHT-treated LNCaP cells; assay type: cell-based, human; details: 5 μM, same concentration as tanshinone2a, DHT-induced LNCaP cells
Procedure: as §1, §2, §3

[3] = system: steroid receptor coactivator-1 (SRC-1); assay: Western blot of SRC-1 expression in DHT-treated LNCaP cells; assay type: cell-based, human; details: 5 μM, DHT-induced LNCaP cells
Procedure: as §1, §2, §3

[4] = system: prostate-specific antigen (PSA); assay: Western blot of PSA expression in DHT-treated LNCaP cells; assay type: cell-based, human; details: 5 μM, same concentration as tanshinone2a, DHT-induced LNCaP cells
Procedure: as §1, §2, §3

[5] = system: androgen-related proteins; assay: Overall effect on androgen-related proteins increased by DHT in LNCaP cells; assay type: cell-based, human; details: 5 μM, compared among tanshinone1, tanshinone2a, cryptotanshinone, 15,16-dihydrotanshinone
Procedure: as §1, §2, §3

[6] = system: cells; details: as reported by SHAN GAO, et al. (2019); cited from earlier work
[7] = Body weight in benign prostatic hyperplasia animal models; assay type: in vivo, Sprague-Dawley rats; details: BPH rats, oral once/day 14 days; extracts and saw palmetto 10-25 mg/kg, finasteride 10 mg/kg
Procedure: Sprague-Dawley rats aged 9 weeks (body weights of 350 g or less) were acclimated for one week or longer, and then used in tests. In order to induce benign prostatic hyperplasia, testicles were removed and then testosterone (dissolved in corn oil) was subcutaneously injected at a dose of 3 mg/kg once/three days for a total of 10 times. […] For the benign prostatic hyperplasia induction groups, testicles were removed and then […] (dissolved in corn oil) was subcutaneously injected at a dose of 3 mg/kg once/three days for a total of 10 times, by the same method as in Example 4.1. For the normal group, an equivalent amount of corn oil was subcutaneously injected. Salvia miltiorrhiza Bunge extracts T70 to T10 and saw palmetto fruit extract were dissolved in distilled water, and orally administered at a dose of 10-25 mg/kg once/day, for 14 days. For the finasteride administration group (Sigma, dissolved in 0.2% Tween 80), finasteride was orally administered at a dose of 10 mg/kg once/day for 14 days. For the negative control group, only distilled water was orally administered. The body weight was measured upon the end of the test, and on the next day after the ending of the last dosing and treatment, the SD-rats were sacrificed with carbon dioxide gas, and then the prostate tissue was extracted and the weight was measured. […]

Cc1cccc2c3c(ccc12)C1=C(C(=O)C3=O)[C@@H](C)CO1 [15,16-dihydrotanshinone, (1R)-1,6-dimethyl-1,2-dihydronaphtho[1,2-g][1]benzofuran-10,11-dione]
inhibition of 5AR2 expression [1]: more effectively than tanshinone2a
inhibition of AR expression relative to tanshinone2a [2]: at least 5 times
inhibition of SRC-1 expression [3]: more effectively than tanshinone2a
inhibition of PSA expression relative to tanshinone2a [4]: at least 5 times
inhibitory effect on androgen-related proteins increased by DHT [5]: most inhibitory effect

O=C(/C=C/c1ccc(O)c2c1[C@H](C(=O)O[C@H](Cc1ccc(O)c(O)c1)C(=O)O)[C@@H](c1ccc(O)c(O)c1)O2)O[C@H](Cc1ccc(O)c(O)c1)C(=O)O [salvianolic acid B]
cytotoxicity [6]: has cytotoxicity at a predetermined concentration

CC(C)(C)NC(=O)[C@H]1CC[C@H]2[C@@H]3CC[C@H]4NC(=O)C=C[C@]4(C)[C@H]3CC[C@]12C [finasteride]
body weight compared with control group (Con) [7]: no great difference
